Reference: patent US4228292A, “N-Substituted benzothiazolines and benzoxazolines and their use as herbicides and plant growth regulants” (Monsanto Company, priority 1978, dated 1980)

What was measured:
Assay in all cases: pre-emergent herbicidal test
Assay type in all cases: in vivo
Crabgrass = conditions: T
Protocol: (§1) The pre-emergent test was conducted as follows:
(§2) A good grade of top soil was placed in aluminum pans and compactd to a depth of 0.95 to 1.27 cm. from the top of the pan. On the top of the soil was placed a predetermined number of seeds or vegetative propagules of various plant species. The soil required to level fill the pans after seeding or adding vegetative propagules was weighed into a pan. A known amount of the herbicidal active ingredient applied in a solvent or as a wettable powder and the soil were thoroughly mixed, and used as a cover layer for prepared pans. After treatment the pans were moved into a greenhouse bench where they were watered from below as needed to give adequate moisture for germination and growth.
(§3) A herbicidal rating code was used to signify the extent of phytotoxicity of each species. The ratings are defined as follows: […]

Hemp Sesbania = conditions: R
Protocol: as §1, §2, §3

Panicum Spp = conditions: S
Protocol: as §1, §2, §3

Rice = conditions: O
Protocol: as §1, §2, §3

Sorghum = conditions: P
Protocol: as §1, §2, §3

Soybean = conditions: L
Protocol: as §1, §2, §3

Sugar Beet = conditions: M
Protocol: as §1, §2, §3

Wheat = conditions: N
Protocol: as §1, §2, §3

Wild Buckwheat = conditions: Q
Protocol: as §1, §2, §3
Note: ranges in brackets are in %.

Question: What does the source list for `CCOC(=N)Cn1c(=O)sc2ccccc21` [Compound 25]?
Answer: pre-emergent herbicidal rating (Crabgrass; 0.056 kg/h, 2 WAT): 0 (0-24); pre-emergent herbicidal rating (Crabgrass; 0.28 kg/h, 2 WAT): 0 (0-24); pre-emergent herbicidal rating (Crabgrass; 1.12 kg/h, 4 WAT): 0 (0-24); pre-emergent herbicidal rating (Crabgrass; 5.6 kg/h, 4 WAT): 2 (50-74); pre-emergent herbicidal rating (Hemp Sesbania; 0.056 kg/h, 2 WAT): 0 (0-24); pre-emergent herbicidal rating (Hemp Sesbania; 0.28 kg/h, 2 WAT): 0 (0-24); pre-emergent herbicidal rating (Hemp Sesbania; 1.12 kg/h, 4 WAT): 2 (50-74); pre-emergent herbicidal rating (Hemp Sesbania; 5.6 kg/h, 4 WAT): 3 (75-100); pre-emergent herbicidal rating (Panicum Spp; 0.056 kg/h, 2 WAT): 0 (0-24); pre-emergent herbicidal rating (Panicum Spp; 0.28 kg/h, 2 WAT): 0 (0-24); pre-emergent herbicidal rating (Panicum Spp; 1.12 kg/h, 4 WAT): 0 (0-24); pre-emergent herbicidal rating (Panicum Spp; 5.6 kg/h, 4 WAT): 0 (0-24); pre-emergent herbicidal rating (Rice; 0.056 kg/h, 2 WAT): 0 (0-24); pre-emergent herbicidal rating (Rice; 0.28 kg/h, 2 WAT): 0 (0-24); pre-emergent herbicidal rating (Rice; 1.12 kg/h, 4 WAT): 0 (0-24); pre-emergent herbicidal rating (Rice; 5.6 kg/h, 4 WAT): 1 (25-49); pre-emergent herbicidal rating (Sorghum; 0.056 kg/h, 2 WAT): 0 (0-24); pre-emergent herbicidal rating (Sorghum; 0.28 kg/h, 2 WAT): 0 (0-24); pre-emergent herbicidal rating (Sorghum; 1.12 kg/h, 4 WAT): 0 (0-24); pre-emergent herbicidal rating (Sorghum; 5.6 kg/h, 4 WAT): 0 (0-24); pre-emergent herbicidal rating (Soybean; 0.056 kg/h, 2 WAT): 0 (0-24); pre-emergent herbicidal rating (Soybean; 0.28 kg/h, 2 WAT): 1 (25-49); pre-emergent herbicidal rating (Soybean; 1.12 kg/h, 4 WAT): 2 (50-74); pre-emergent herbicidal rating (Soybean; 5.6 kg/h, 4 WAT): 3 (75-100); pre-emergent herbicidal rating (Sugar Beet; 0.056 kg/h, 2 WAT): 0 (0-24); pre-emergent herbicidal rating (Sugar Beet; 0.28 kg/h, 2 WAT): 1 (25-49); pre-emergent herbicidal rating (Sugar Beet; 1.12 kg/h, 4 WAT): 1 (25-49); pre-emergent herbicidal rating (Sugar Beet; 5.6 kg/h, 4 WAT): 3 (75-100); pre-emergent herbicidal rating (Wheat; 0.056 kg/h, 2 WAT): 0 (0-24); pre-emergent herbicidal rating (Wheat; 0.28 kg/h, 2 WAT): 0 (0-24); pre-emergent herbicidal rating (Wheat; 1.12 kg/h, 4 WAT): 0 (0-24); pre-emergent herbicidal rating (Wheat; 5.6 kg/h, 4 WAT): 1 (25-49); pre-emergent herbicidal rating (Wild Buckwheat; 0.056 kg/h, 2 WAT): 0 (0-24); pre-emergent herbicidal rating (Wild Buckwheat; 0.28 kg/h, 2 WAT): 0 (0-24); pre-emergent herbicidal rating (Wild Buckwheat; 1.12 kg/h, 4 WAT): 1 (25-49); pre-emergent herbicidal rating (Wild Buckwheat; 5.6 kg/h, 4 WAT): 2 (50-74)

Question: With `CCCOC(=N)Cn1c(=O)sc2ccccc21` [Compound 30] as the compound, how does the pre-emergent herbicidal rating (Crabgrass; 0.28 kg/h, 2 WAT) read?
Answer: 0 (0-24)

Question: What about the pre-emergent herbicidal rating (Crabgrass; 1.12 kg/h, 4 WAT) of the same compound?
Answer: 2 (50-74)

Question: What about the pre-emergent herbicidal rating (Crabgrass; 5.6 kg/h, 4 WAT) of the same compound?
Answer: 3 (75-100)

Question: And the pre-emergent herbicidal rating (Hemp Sesbania; 0.28 kg/h, 2 WAT)?
Answer: 1 (25-49)

Question: What about the pre-emergent herbicidal rating (Hemp Sesbania; 1.12 kg/h, 4 WAT) of the same compound?
Answer: 2 (50-74)

Question: And the pre-emergent herbicidal rating (Hemp Sesbania; 5.6 kg/h, 4 WAT)?
Answer: 3 (75-100)

Question: And the pre-emergent herbicidal rating (Panicum Spp; 0.28 kg/h, 2 WAT)?
Answer: 0 (0-24)

Question: What about the pre-emergent herbicidal rating (Panicum Spp; 1.12 kg/h, 4 WAT) of the same compound?
Answer: 0 (0-24)

Question: And the pre-emergent herbicidal rating (Panicum Spp; 5.6 kg/h, 4 WAT)?
Answer: 0 (0-24)

Question: And the pre-emergent herbicidal rating (Rice; 0.28 kg/h, 2 WAT)?
Answer: 0 (0-24)

Question: And the pre-emergent herbicidal rating (Rice; 1.12 kg/h, 4 WAT)?
Answer: 0 (0-24)

Question: What about the pre-emergent herbicidal rating (Rice; 5.6 kg/h, 4 WAT) of the same compound?
Answer: 1 (25-49)

Question: What about the pre-emergent herbicidal rating (Sorghum; 0.28 kg/h, 2 WAT) of the same compound?
Answer: 0 (0-24)

Question: What about the pre-emergent herbicidal rating (Sorghum; 1.12 kg/h, 4 WAT) of the same compound?
Answer: 0 (0-24)

Question: And the pre-emergent herbicidal rating (Sorghum; 5.6 kg/h, 4 WAT)?
Answer: 0 (0-24)

Question: What about the pre-emergent herbicidal rating (Soybean; 0.28 kg/h, 2 WAT) of the same compound?
Answer: 0 (0-24)

Question: And the pre-emergent herbicidal rating (Soybean; 1.12 kg/h, 4 WAT)?
Answer: 1 (25-49)

Question: And the pre-emergent herbicidal rating (Soybean; 5.6 kg/h, 4 WAT)?
Answer: 3 (75-100)

Question: And the pre-emergent herbicidal rating (Sugar Beet; 0.28 kg/h, 2 WAT)?
Answer: 1 (25-49)

Question: What about the pre-emergent herbicidal rating (Sugar Beet; 1.12 kg/h, 4 WAT) of the same compound?
Answer: 1 (25-49)

Question: And the pre-emergent herbicidal rating (Sugar Beet; 5.6 kg/h, 4 WAT)?
Answer: 3 (75-100)

Question: What about the pre-emergent herbicidal rating (Wheat; 0.28 kg/h, 2 WAT) of the same compound?
Answer: 0 (0-24)

Question: And the pre-emergent herbicidal rating (Wheat; 1.12 kg/h, 4 WAT)?
Answer: 0 (0-24)

Question: What about the pre-emergent herbicidal rating (Wheat; 5.6 kg/h, 4 WAT) of the same compound?
Answer: 1 (25-49)

Question: What about the pre-emergent herbicidal rating (Wild Buckwheat; 0.28 kg/h, 2 WAT) of the same compound?
Answer: 0 (0-24)

Question: What about the pre-emergent herbicidal rating (Wild Buckwheat; 1.12 kg/h, 4 WAT) of the same compound?
Answer: 1 (25-49)

Question: And the pre-emergent herbicidal rating (Wild Buckwheat; 5.6 kg/h, 4 WAT)?
Answer: 2 (50-74)
